According to US6723702B2, “Use of relaxin treat diseases related to vasoconstriction” (RAS Medical, Inc., priority 2000, dated 2004):
Read-outs that look alike come from different tables or passages of the source.

Tests used:
THP-1 cells = assay: THP-1 cells: secreted VEGF protein by ELISA; format: cell-based, human
Description: THP-1 cells were obtained from the American Type Culture Collection (ATCC# TIB202), and grown in Iscove's medium supplemented with 10% fetal bovine serum and 2 mM L-glutamine. For experiments, THP-1 cells were cultured at 5×10^5 cells/ml in 24-well plates, treated and allowed to incubate for various times at 37° C. Conditioned media and cells were then collected, and cells removed by centrifugation at 500 g for 5 min. Media were stored at −80° C. until assayed.
VEGF protein was quantified in an ELISA kit purchased from R & D Systems (Minneapolis, Minn.). The lower limit of sensitivity of the assay was 10 pg/ml.
Because macrophages are the inflammatory cells predominantly responsible for the angiogenic response that occurs during healing, a monocyte/macrophage cell line shown previously to bind relaxin with high affinity (THP-1) (Parsell et al. (1996) J. Biol. Chem. 271:27936-27941) was tested for relaxin inducibility of VEGF and bFGF. THP-1 cells were cultured in vitro, treated with relaxin (100 ng/ml) for 3 hours, and assayed for VEGF and bFGF mRNA induction. […] In order to determine whether the increase in VEGF mRNA observed following short-term relaxin treatment was reflected by an elevation in secreted VEGF protein, THP-1 cells were treated with relaxin (0.01-100 ng/ml) for 24 h, the conditioned media collected, and VEGF content in the media quantified by ELISA. […]

[1] = system: small mesenteric arteries; assay: Myogenic reactivity of small mesenteric arteries; format: in vivo, rat; conditions: female rats chronically administered rhRLX (FIG. 15)
[2] = system: hypoxia-exposed and room-air Sprague-Dawley rats; format: in vivo, rat; conditions: for mean RVP compared to the veh-hyp group: hypoxia 10 days (FIG. 7)
Description: Outbred 6-week-old Sprague-Dawley rats, 200-220 g body weight, were obtained from Hilltop Laboratories, Scottdale, Pa. Recombinant human relaxin (rhRlx) (5.0 mg/ml in 20 mM sodium acetate, pH5.0) and vehicle (20 mM acetate, pH5.0) were provided by Connetics Corporation (Palo Alto, Calif.). Miniosmotic pumps were purchased from Alza Corporation (Model 2002, Alza Corp., Palo Alto, Calif.).
Mini osmotic pumps were filled to deliver rhRlx at […], or vehicle alone. Osmotic pumps were inserted subcutaneously in rats under a combination of ketamine and xylazine anaesthesia. The area around the back of the neck was shaved, cleaned with alcohol, and a small incision made for pump insertion. Incision was closed with surgical staples. After the animals were fully conscious they were randomly assigned to either hypoxic exposure or room air. Rats were subjected to either air or hypoxia, as described below. There were three groups of rats subjected to air: vehicle-treated (veh-air), 0.05 mg/kg/day rhRlx (low rhRlx-air), and 0.24 mg/kg/day rhRlx (hi rhRlx-air). There were three groups subjected to hypoxia: vehicle (veh-hyp), 0.05 mg/kg/day rhRlx (low rhRlx-hyp), and 0.24 mg/kg/day rhRlx (hi rhRlx-hyp).
Rats were exposed to hypoxia (10% O2, 90% N2) at ambient pressure (Kerr et al., 1987) for 10 days, control groups were exposed to room air in the same room. Hypoxic animals were fed standard rat chow and water. Age-matched control groups were weight-matched by feeding the amount of food consumed by the rats in the hypoxic groups. At the end of the test period, mean right ventricular pressure (RVP) was measured in rats anaesthetized with an intraperitoneal injection of 50 mg/kg pentobarbital sodium. The portal vein was then cut for hematocrit measurement (Hct) and blood sampling, and the ratio of the right ventricle to left ventricle plus septum measured [RV/(LV+S)] (Kerr et al., 1987). To determine the effect of acute administration of rhRlx on pulmonary artery pressure, four 10-day hypoxic rats were anaesthetized, as previously described, and RVP monitored for 1 hr following administration of a bolus dose of 2 μg rhRlx in 0.2 ml total volume, followed by an infusion of 2 μg rhRlx in 0.2 ml, given over 10 min.
The pulmonary artery trunk, right and left extrapulmonary branches were removed en bloc, cleaned of surrounding tissue, and weighed. The left lung was and excised and the entire hilar artery dissected from parenchyma and weighed (Tozzi et al. (1994) Am. J. Respir. Crit. Care Med. 149:1316-1326). Segments were hydrolyzed, and total hydroxyproline and protein determined (Poiani et al. (1990) Circ. Res. 66:968-978). Approximately 3 cc of whole blood was centrifuged, serum aspirated, and sample frozen at −20° C. for determination of rRlx levels by ELISA assay.

small renal arteries = assay: Myogenic reactivity of isolated small renal arteries, pressurized arteriograph; format: in vivo, rat; conditions: female rats administered rhRLX for 5 days (FIG. 14)
Text: Myogenic reactivity is a dynamic and complex integrative vascular behavior which can be assessed in small renal arteries utilizing the pressurized arteriograph. Equivalent tone was first established in all vessels by constricting them to 75% of their baseline diameter at 60 mm Hg using the adrenergic agonist, phenylephrine. Next the arteries which began at an initial pressure of 20 mm Hg were subjected to a rapid increase in transmural pressure of 20 mm Hg increments in the absence of flow. […] This blunted myogenic reactivity following rhRLX treatment of nonpregnant rats mimics pregnancy (Gandley RE, Conrad KP, McLaughlin MK. Am J Physiol Integrative Comp Physiol 280:R1-R7, 2001). Morever, as during pregnancy, this blunted myogenic reactivity can be reversed by adding inhibitors of nitric oxide to the vessel bath.

With “rhRLX: recombinant human relaxin, identical in amino acid sequence to the product of the human H2 gene; A chain of 24, B chain of 29 amino acids” the VEGF protein secretion (THP-1 cells; 0.01-100 ng/ml for 24 h, dose-dependent) was “approximately 150%”, the “threshold relaxin concentration required for stimulation of VEGF protein secretion” value (THP-1 cells; 24 h) was 0.2 to 1.0 ng/mL and the myogenic reactivity [1] was “reduced myogenic reactivity”. For the same substance, the “Hydroxyproline Hilar” value ([2]; 1 mg-air) was 38.0 ± 2.3 μg/vessel, the “Hydroxyproline MPA” value ([2]; 1 mg-air) was 76.4 ± 4.0 μg/vessel and the “Protein Hilar” value ([2]; 1 mg-air) was 0.78 ± 0.3 mg/vessel. For the same substance, the “Protein MPA” value ([2]; 1 mg-air) was 2.6 ± 0.2 mg/vessel, the “Hydroxyproline Hilar” value ([2]; 1 mg-hyp) was 41.0 ± 3.3 μg/vessel and the “Hydroxyproline MPA” value ([2]; 1 mg-hyp) was 95.2 ± 3.6 μg/vessel. For the same substance, the “Protein Hilar” value ([2]; 1 mg-hyp) was 0.90 ± 0.2 mg/vessel, the “Protein MPA” value ([2]; 1 mg-hyp) was 2.3 ± 0.2 mg/vessel and the “Hydroxyproline Hilar” value ([2]; 5 mg-air) was 33.5 ± 1.5 μg/vessel. For the same substance, the “Hydroxyproline MPA” value ([2]; 5 mg-air) was 75.2 ± 4.0 μg/vessel, the “Protein Hilar” value ([2]; 5 mg-air) was 1.1 ± 0.1 mg/vessel and the “Protein MPA” value ([2]; 5 mg-air) was 2.5 ± 0.3 mg/vessel. For the same substance, the “Hydroxyproline Hilar” value ([2]; 5 mg-hyp) was 37.0 ± 5.0*↑ μg/vessel, the “Hydroxyproline MPA” value ([2]; 5 mg-hyp) was 86.6 ± 6.0*↑ μg/vessel and the “Protein Hilar” value ([2]; 5 mg-hyp) was 0.75 ± 0.8 mg/vessel. The “Protein MPA” value ([2]; 5 mg-hyp) was 2.0 ± 0.4 mg/vessel, the “RV/(LV+S) ratio compared to the veh-hyp group” value ([2]; hi rhRlx-hyp) was “significantly reduced” and the “mean RVP compared to the veh-hyp group” value ([2]; high dose) was “decreased”. The “mean RVP compared to the veh-hyp group” value ([2]; low dose) was “decreased”, the “RV/(LV+S) ratio compared to the veh-hyp group” value ([2]; low rhRlx-hyp) was “significantly reduced” and the “myogenic reactivity ex vivo” value (small renal arteries) was “reduced myogenic reactivity”.
